Entries after “also recorded” stand apart in the source; their conditions may differ.
Columns and labels:
[1] = system: Un-transfected HEK293 cells; experiment: whole-cell patch clamp, control HEK293 cells (un-transfected or GFP alone); format: cell-based, human
Protocol: (§1) Currents from OR-expressing HEK293 cells were amplified with an Axopatch 200b Amplifier (Axon Instruments) and digitized through a Digidata 1322A (Axon Instruments). Electrophysiological data was recorded and analyzed using pCLAMP 10 (Axon Instruments). Electrodes were fabricated from quartz tubing (Sutter Instruments) and pulled to 4-6 MΩ for whole cell recording. Electrodes were filled with internal solution (120 mM KCl, 30 mM D-glucose, 10 mM HEPES, 2 mM MgCl2, 1.1 mM EGTA, and 0.1 CaCl2 (pH 7.35, 280 mOsm). External (bath) solution contained 130 mM NaCl, 34 mM D-glucose, 10 mM HEPES, 1.5 mM CaCl2, 1.3 mM KH2PO4, and 0.5 MgSO4 (pH 7.35, 300 mOsm). Compounds were diluted in external solution and locally perfused to the recording cell using Perfusion Pencil (Automate Scientific) and controlled by a ValveLink 8.2 controller (Automate Scientific). Whole cell recordings were sampled at 10 kHz and filtered at 5 kHz. Outside-out patches were obtained using 10-15MΩ electrodes pulled from standard glass capillaries (World Precision Instruments) and fire-polished with an MF-830 micro forge (Narishige). Single channel recordings were sampled at 20 kHz. Recordings were reduced to 1 kHz and low-pass filtered at 500 Hz for display and analysis using QuB (SUNY at Buffalo).

AgORco+AgOR10 = experiment: plate-based Fluo-4 Ca2+ imaging in stable HEK293 cell lines; parameters: species or system Anopheles gambiae; details: AgORco+AgOR10 HEK293 cells; not seen in control cells
Text: For transient transfections, ORs were cloned into pCI (Promega) and transfected into Flp-In™ T-REx™293 cell lines (Invitrogen) with Fu GENE6 (Roche). For the creation of stable cell lines, a cell culture expression vector capable of expressing AgORco in conjunction with a conventional OR, pcDNA5/FRT/TO (Invitrogen) was modified to create two individual expression cassettes each under the control of a separate CMV/TetO2 promoter and a BGH poly-adenylation signal. Cells (as above) were transfected with the modified pcDNA5 plasmid along with POG44 (a Flp recombinase expression plasmid) to facilitate site-specific recombination. Stable cell lines were selected using Hygromycin B (Invitrogen). Cells were maintained in DMEM (Invitrogen) supplemented with 10% Tetracycline-free FBS (HyClone) and 15 μg/ml Blasticidin. For fluorometric Ca^2+ measurements, stable lines expressing ORs of interest were seeded at 20,000 cells/well in black wall, poly-lysine coated 384-well cell culture plates (Greiner) and treated with […] tetracycline (Sigma) overnight to induce OR expression. Cells were dye-loaded with 1.8 μM Fluo-4 AM (Molecular Probes), 2.5 mM Probenecid (Molecular Probes) in assay buffer (20 mM HEPES, 1×HBSS) for 45 minutes at 37° C. in 5% CO2 prior to each assay. […] Baseline readings were taken for 20 s before automated addition of compound previously diluted in DMSO and assay buffer. […]

AgORco = target: T1, AgORco (Anopheles gambiae, UniProt Q7QCC7); experiment: single-channel recording, outside-out patches from AgORco-expressing HEK293 cells; format: cell-based
T1 construct: expressed in transfected cells
T1 sequence (Q7QCC7 1-478): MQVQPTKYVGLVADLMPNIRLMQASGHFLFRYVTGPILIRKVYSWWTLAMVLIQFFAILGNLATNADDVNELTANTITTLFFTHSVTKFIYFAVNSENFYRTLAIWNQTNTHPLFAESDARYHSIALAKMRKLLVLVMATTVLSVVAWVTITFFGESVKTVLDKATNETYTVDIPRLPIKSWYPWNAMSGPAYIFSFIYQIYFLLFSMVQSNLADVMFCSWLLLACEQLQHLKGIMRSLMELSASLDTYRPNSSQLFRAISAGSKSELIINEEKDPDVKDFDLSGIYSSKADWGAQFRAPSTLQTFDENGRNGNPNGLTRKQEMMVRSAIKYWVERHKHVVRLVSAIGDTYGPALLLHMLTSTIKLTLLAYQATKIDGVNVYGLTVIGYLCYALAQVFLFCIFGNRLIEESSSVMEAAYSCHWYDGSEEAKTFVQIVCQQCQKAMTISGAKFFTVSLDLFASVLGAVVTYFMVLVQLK
Protocol: as §1
In the next set of studies, outside-out membrane patches were excised from AgORco-expressing cells to examine single-channel currents evoked by VUAA1 (FIG. 5A). Here, spontaneous channel opening was observed before VUAA1 stimulation, but with very low probability (Po=0.02) (FIG. 5B). During a 5 s application of VUAA1 channel opening probability increased to Po=0.38 (FIG. 5C). Subsequent to agonist washout, channel opening probability decreased to 0.00 (FIG. 5D). The average unitary current of AgORco was 1.3±0.3 pA (mean±st. dev.) (FIG. 5C, inset) which is consistent with earlier single-channel studies of insect ORs (Sato et al., 2008).

CCc1ccc(NC(=O)CSc2nnc(-c3cccnc3)n2CC)cc1 [VUAA1]
whole-cell currents in GFP alone cells ([1]; HEK cells transfected with GFP alone): no currents
whole-cell currents in control cells ([1]; control / un-transfected HEK293 cells): no responses were observed; also recorded: did not respond
Ca2+ imaging response (AgORco+AgOR10): concentration-dependent responses
channel opening probability (Po) during application (AgORco; 5 s application of −4.0 log M, outside-out patch held at −60 mV, Po=0.02 before stimulation): 0.38
average unitary current of AgORco (AgORco; during VUAA1 application, mean±st. dev.): 1.3±0.3 pA
channel opening probability after agonist washout (AgORco; outside-out patch, after washout): 0.00
